For twelve compounds, IC50 and EC50 results are on record in article PMC8694051 (Proceedings of the National Academy of Sciences of the …, 2021).

Assay [1] deals with Thrombin (Homo sapiens, UniProt P00734). Description: Thrombin enzyme inhibition (published assays). Format: biochemical.
Assay [2] addresses T1, Matriptase (Homo sapiens, UniProt Q9Y5Y6).
T1 sequence (Q9Y5Y6 1-855): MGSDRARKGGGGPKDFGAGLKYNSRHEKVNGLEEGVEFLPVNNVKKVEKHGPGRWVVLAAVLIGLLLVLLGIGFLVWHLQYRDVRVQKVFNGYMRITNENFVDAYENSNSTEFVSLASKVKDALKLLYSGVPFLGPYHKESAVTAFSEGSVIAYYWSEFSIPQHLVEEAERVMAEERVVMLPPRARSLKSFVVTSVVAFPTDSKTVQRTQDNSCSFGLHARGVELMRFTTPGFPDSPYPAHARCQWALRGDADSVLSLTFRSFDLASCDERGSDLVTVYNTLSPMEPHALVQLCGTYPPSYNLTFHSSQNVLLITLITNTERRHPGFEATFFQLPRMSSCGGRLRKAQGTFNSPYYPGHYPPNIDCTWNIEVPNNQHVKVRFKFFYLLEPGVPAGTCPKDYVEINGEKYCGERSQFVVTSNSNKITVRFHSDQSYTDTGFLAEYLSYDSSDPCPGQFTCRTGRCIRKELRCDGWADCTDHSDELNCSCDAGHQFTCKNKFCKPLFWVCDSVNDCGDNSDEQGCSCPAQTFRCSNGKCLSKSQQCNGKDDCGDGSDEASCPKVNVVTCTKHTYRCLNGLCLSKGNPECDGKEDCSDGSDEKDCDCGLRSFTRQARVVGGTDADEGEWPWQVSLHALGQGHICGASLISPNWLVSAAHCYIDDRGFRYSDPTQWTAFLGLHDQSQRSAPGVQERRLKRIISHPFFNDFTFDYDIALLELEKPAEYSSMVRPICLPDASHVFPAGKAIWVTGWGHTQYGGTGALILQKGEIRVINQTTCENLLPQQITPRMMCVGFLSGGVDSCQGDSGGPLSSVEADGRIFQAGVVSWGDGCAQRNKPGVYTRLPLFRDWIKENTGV
As to the kind of experiment: Matriptase enzyme inhibition (published assays). Format: biochemical.

The target of assay [3] is T2, HGFA (Homo sapiens, UniProt Q04756).
T2 sequence (Q04756 373-655): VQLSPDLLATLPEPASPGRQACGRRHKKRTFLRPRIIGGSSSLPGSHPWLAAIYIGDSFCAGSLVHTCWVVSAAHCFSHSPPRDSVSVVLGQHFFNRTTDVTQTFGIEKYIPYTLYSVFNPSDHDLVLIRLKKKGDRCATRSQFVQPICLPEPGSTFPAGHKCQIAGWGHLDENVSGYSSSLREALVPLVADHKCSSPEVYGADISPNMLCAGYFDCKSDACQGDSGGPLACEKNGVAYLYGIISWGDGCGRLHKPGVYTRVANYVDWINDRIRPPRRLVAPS
Description: HGFA enzyme inhibition (published assays). Format: biochemical.

The target in assay [4] is Factor Xa (Homo sapiens, UniProt P00742). As to the kind of experiment: Factor Xa enzyme inhibition (published assays). Format: biochemical.
Assay [5] has as its target Hepsin (Homo sapiens, UniProt P05981). As to the kind of experiment: Hepsin enzyme inhibition (published assays). It is filed as biochemical.
The test system of assay [6] is VSV-SARS-CoV-2-Spike protein Pseudotype virus. As to the kind of experiment: microbe, parasite or virus in culture. It is filed as cell-based. To be noted: read-out: VSV-SARS-CoV-2 Calu-3 EC50.
Assay [7] deals with wild-type SARS-CoV-2. Description: microbe, parasite or virus in culture. The following applies: Severe acute respiratory syndrome coronavirus 2, Calu-3, 72 h, read-out: SARS-CoV-2 Wild-type Calu-3 IC50 (nM). Format: cell-based.

Sequence of Factor Xa (P00742 235-488 limits assumed): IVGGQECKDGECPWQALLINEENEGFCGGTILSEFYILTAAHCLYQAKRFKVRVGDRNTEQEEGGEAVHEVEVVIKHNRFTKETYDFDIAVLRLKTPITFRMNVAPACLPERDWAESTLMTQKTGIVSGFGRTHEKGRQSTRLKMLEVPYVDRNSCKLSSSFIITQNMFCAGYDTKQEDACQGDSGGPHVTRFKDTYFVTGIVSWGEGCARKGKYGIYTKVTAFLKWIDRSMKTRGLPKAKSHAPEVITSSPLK
Sequence of Factor Xa (P00742 41-179 partner limits assumed): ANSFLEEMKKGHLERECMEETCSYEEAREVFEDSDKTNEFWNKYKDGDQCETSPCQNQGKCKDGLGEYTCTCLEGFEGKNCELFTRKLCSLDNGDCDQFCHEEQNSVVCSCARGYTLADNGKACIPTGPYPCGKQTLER
Sequence of Hepsin (P05981 whole entry): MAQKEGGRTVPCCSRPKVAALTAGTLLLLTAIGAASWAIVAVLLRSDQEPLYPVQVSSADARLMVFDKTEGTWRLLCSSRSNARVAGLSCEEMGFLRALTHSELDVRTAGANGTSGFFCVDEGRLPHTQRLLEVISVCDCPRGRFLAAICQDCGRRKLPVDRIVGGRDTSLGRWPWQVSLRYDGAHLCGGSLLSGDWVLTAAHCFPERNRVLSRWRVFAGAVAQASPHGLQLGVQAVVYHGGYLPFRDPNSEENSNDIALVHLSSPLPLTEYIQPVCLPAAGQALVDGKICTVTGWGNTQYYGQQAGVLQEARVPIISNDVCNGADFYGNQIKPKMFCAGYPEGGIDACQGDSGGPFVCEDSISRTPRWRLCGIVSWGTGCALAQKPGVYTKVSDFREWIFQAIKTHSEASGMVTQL

As a reminder, the IC50 is the concentration that gives 50% inhibition. On to `CC(=O)NC(CO)C(=O)NC(CCCCN)C(=O)NC(CC(C)C)C(=O)NC(CCCNC(=N)N)C(=O)c1nc2ccccc2s1` (stereo not drawn) [Compound 3, Ac-SKLR-kbt], for which the IC50 was above 20000 nM in assay [1]; 6.1 nM in assay [2]; 66 nM in assay [3]; 3800 nM in assay [4]; 0.32 nM in assay [5].
Taken in the same sequence, the figures for `CC(=O)N[C@@H](Cc1c[nH]c2ccccc12)C(=O)N[C@@H](Cc1ccccc1)C(=O)N[C@@H](CCCNC(=N)N)C(=O)c1nc2ccccc2s1` [Compound 8, Ac-WFR-kbt] were above 20000 nM, 5.7 nM, 329 nM, 22 nM and 7.6 nM.
Taken in the same sequence, the figures for `CC(=O)N[C@@H](CO)C(=O)N[C@@H](CCCCN)C(=O)N[C@@H](Cc1ccccc1)C(=O)N[C@@H](CCCNC(=N)N)C(=O)c1nccs1` [Compound 9, Ac-SKFR-kt] were above 20000 nM, 6.1 nM, 114 nM, 1060 nM and 17 nM.
Taken in the same sequence, the figures for `CC(=O)N[C@@H](CCCCN)C(=O)N[C@@H](CCC(N)=O)C(=O)N[C@@H](Cc1ccccc1)C(=O)N[C@@H](CCCNC(=N)N)C(=O)c1nccs1` [Compound 10, Ac-KQFR-kt] were above 20000 nM, 1.4 nM, 116 nM, 158 nM and 1.2 nM.
On to `CC(=O)N[C@@H](CO)C(=O)N[C@@H](CCC(N)=O)C(=O)N[C@@H](CC(C)C)C(=O)N[C@@H](CCCNC(=N)N)C(=O)c1nccs1` [Compound 11, Ac-SQLR-kt], for which the IC50 in assay [2] stood at 18 nM; in assay [3] it was 364 nM; in assay [5], 0.68 nM.
As for `CC(=O)N[C@@H](Cc1ccccc1)C(=O)N[C@@H](CC(C)C)C(=O)N[C@@H](Cc1ccccc1)C(=O)N[C@@H](CCCNC(=N)N)C(=O)c1nc2ccccc2s1` [Compound 12, Ac-FLFR-kbt], the IC50 was above 20000 nM in assay [1]; 7.2 nM in assay [2]; 228 nM in assay [3]; 26 nM in assay [4]; 2.9 nM in assay [5].
As a reminder, the EC50 is the concentration giving half of the maximal effect. On to `CC(=O)N[C@H](Cc1c[nH]c2ccccc12)C(=O)N[C@@H](Cc1ccccc1)C(=O)N[C@@H](CCCNC(=N)N)C(=O)c1nc2ccccc2s1` [Compound 13, Ac-dWFR-kbt], for which the IC50 in assay [1] was determined as 3700 nM; in assay [2], 2.6 nM; in assay [3], 27 nM; in assay [4], 98 nM; in assay [5] it was 1.1 nM. For the same compound, the EC50 in assay [6] was determined as 32 nM.
In the case of `CC(=O)N[C@@H](CC(C)C)C(=O)N[C@@H](CC(C)C)C(=O)N[C@@H](CCCNC(=N)N)C(=O)c1nccs1` [Compound 18, Ac-LLR-kt], the IC50 came out at 56 nM in assay [2], 506 nM in assay [3] and 4.6 nM in assay [5]. Also, the EC50 in assay [6] is 349 nM.
In the case of `CCC(CC)COC(=O)[C@H](C)N[P@](=O)(OC[C@H]1O[C@@](C#N)(c2ccc3c(N)ncnn23)[C@H](O)[C@@H]1O)Oc1ccccc1` [Remdesivir], the IC50 in assay [7] amounted to 1270 nM.
On to Cyclo(DMK)R-kbt [Compound 19], for which the concentration for half-maximal inhibition (IC50) turned out to be 18500 nM in assay [1]; 1 nM in assay [2]; 3240 nM in assay [3]; 1390 nM in assay [4]; 5.9 nM in assay [5]. Moreover, the EC50 in assay [6] was 119 nM.
For Cyclo(DQK)R-kbt [Compound 20], the IC50 is above 20000 nM in assay [1]; 7.7 nM in assay [2]; 16100 nM in assay [3]; above 20000 nM in assay [4]; 22 nM in assay [5]. Also, in assay [6], the EC50 was determined as 138 nM.
In the case of Cyclo(allylGLY)R-kbt [Compound 21], the IC50 was above 20000 nM in assay [1]; 14 nM in assay [2]; above 20000 nM in assay [3]; 8810 nM in assay [4]; 20 nM in assay [5]. In assay [6], the EC50 is 565 nM.
